Assay results published in US9763942B2, “Serine/threonine kinase inhibitors” (Array BioPharma Inc., priority 2013, dated 2017).

Biological target: T1, human ERK-2 (Mitogen Activated Kinase 1) (Homo sapiens, UniProt P28482)
T1 construct: n-terminal 6-His fusion protein in E. coli and corresponding to aa 8-360; 6-His (N); made in house; host or cells: E. coli
Test: ERK-2 Enzymatic Assay
Type: biochemical
Details: ERK-2 enzymatic assay; read-out: IC50
Description: Table 1 contains representative data for Examples disclosed herein.

T1 sequence (P28482 8-360): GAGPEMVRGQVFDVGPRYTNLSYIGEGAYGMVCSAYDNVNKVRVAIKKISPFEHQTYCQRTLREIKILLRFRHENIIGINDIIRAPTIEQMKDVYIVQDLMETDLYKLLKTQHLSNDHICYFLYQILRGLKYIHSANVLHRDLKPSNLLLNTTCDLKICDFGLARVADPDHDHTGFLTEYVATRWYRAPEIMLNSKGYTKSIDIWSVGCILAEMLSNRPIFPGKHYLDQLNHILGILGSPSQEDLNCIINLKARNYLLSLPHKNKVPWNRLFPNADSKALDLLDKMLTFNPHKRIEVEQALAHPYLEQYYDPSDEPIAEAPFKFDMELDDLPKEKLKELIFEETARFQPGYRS

| IC50 [nM] | Structure (SMILES) |
| --- | --- |
| < 100 | Cn1nccc1Nc1nccc(-c2ccc3c(c2)nnn3CC2(c3ccc(OC(F)(F)F)cc3)CC2)n1 [Example 47, N-(1-methyl-1H-pyrazol-5-yl)-4-(1-((1-(4-(trifluoromethoxy)phenyl)cyclopropyl)methyl)-1H-benzo[d][1,2,3]triazol-5-yl)pyrimidin-2-amine] |
| < 100 | Cn1nccc1Nc1nccc(-c2ccc3c(c2)nnn3CC2(C)CCC2)n1 [Example 48, N-(1-methyl-1H-pyrazol-5-yl)-4-(1-((1-methylcyclobutyl)methyl)-1H-benzo[d][1,2,3]triazol-5-yl)pyrimidin-2-amine] |
| < 100 | Cn1nccc1Nc1nccc(-c2ccc3c(c2)nnn3CCc2ccccc2Cl)n1 [Example 49, 4-(1-(2-chlorophenethyl)-1H-benzo-[d][1,2,3]triazol-5-yl)-N-(1-methyl-1H-pyrazol-5-yl)pyrimidin-2-amine] |
| < 100 | Cn1nccc1Nc1nccc(-c2ccc3c(c2)nnn3CCc2cccc(Cl)c2)n1 [Example 50, 4-(1-(3-chlorophenethyl)-1H-benzo[d][1,2,3]triazol-5-yl)-N-(1-methyl-1H-pyrazol-5-yl)pyrimidin-2-amine] |
| < 100 | Cn1nccc1Nc1nccc(-c2ccc3c(c2)nnn3Cc2ccc(OC(F)F)cc2)n1 [Example 51, 4-(1-(4-(difluoromethoxy)benzyl)-1H-benzo[d][1,2,3]triazol-5-yl)-N-(1-methyl-1H-pyrazol-5-yl)pyrimidin-2-amine] |
| < 100 | Cn1nccc1Nc1nccc(-c2ccc3c(c2)nnn3Cc2cccc(C(F)(F)F)n2)n1 [Example 52, N-(1-methyl-1H-pyrazol-5-yl)-4-(1-((6-(trifluoromethyl)pyridin-2-yl)methyl)-1H-benzo[d][1,2,3]triazol-5-yl)pyrimidin-2-amine] |
| < 100 | Cc1ncccc1Cn1nnc2cc(-c3ccnc(Nc4ccnn4C)n3)ccc21 [Example 53, N-(1-methyl-1H-pyrazol-5-yl)-4-(1-((2-methylpyridin-3-yl)methyl)-1H-benzo[d][1,2,3]triazol-5-yl)pyrimidin-2-amine] |
| < 100 | COc1ncccc1Cn1nnc2cc(-c3ccnc(Nc4ccnn4C)c3)ccc21 [Example 54, 4-(1-((2-methoxypyridin-3-yl)methyl)-1H-benzo[d][1,2,3]triazol-5-yl)-N-(1-methyl-1H-pyrazol-5-yl)pyridin-2-amine] |
| < 100 | Cc1ccc(Cn2nnc3cc(-c4ccnc(Nc5ccnn5C)n4)ccc32)cn1 [Example 57, N-(1-methyl-1H-pyrazol-5-yl)-4-(1-((6-methylpyridin-3-yl)methyl)-1H-benzo[d][1,2,3]triazol-5-yl)pyrimidin-2-amine] |
| < 100 | Cn1nccc1Nc1nccc(-c2ccc3c(c2)nnn3C2CCc3cc(Cl)ccc32)n1 (stereo not shown) [Example 59, 4-(1-(5-chloro-2,3-dihydro-1H-inden-1-yl)-1H-benzo[d][1,2,3]triazol-5-yl)-N-(1-methyl-1H-pyrazol-5-yl)pyrimidin-2-amine] |
| < 100 | Cn1nccc1Nc1nccc(-c2ccc3c(c2)nnn3CC(C)(C)O)n1 [Example 60, 2-methyl-1-(5-(2-((1-methyl-1H-pyrazol-5-yl)amino)pyrimidin-4-yl)-1H-benzo[d][1,2,3]triazol-1-yl)propan-2-ol] |
| < 100 | Cn1nccc1Nc1nccc(-c2ccc3c(c2)nnn3CC2CN(C(=O)OC(C)(C)C)C2)n1 [Example 63, tert-butyl 3-((5-(2-((1-methyl-1H-pyrazol-5-yl)amino)pyrimidin-4-yl)-1H-benzo[d][1,2,3]triazol-1-yl)methyl)azetidine-1-carboxylate] |
| < 100 | Cn1nccc1Nc1nccc(-c2ccc3c(c2)nnn3CC2CN(CC(F)(F)F)C2)n1 [Example 64, N-(1-methyl-1H-pyrazol-5-yl)-4-(1-((1-(2,2,2-trifluoroethyl)azetidin-3-yl)methyl)-1H-benzo[d][1,2,3]triazol-5-yl)pyrimidin-2-amine] |
